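1) Cells in 96-well plates. 2) Compound, 48 h, 5 concentrations. 3) Linear interpolation between surrounding doses. 4) Unreached endpoint = highest concentration. Here, GI50 denotes the concentration required for 50% inhibition of growth. At the TGI there is no net growth.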
What was measured:
Experiment in all cases: NCI anticancer screen, dose series, 48 h
786-0 renal = tested on: 786-0 renal
HCC-2998 colon = tested on: HCC-2998 colon
HCT-116 colon = tested on: HCT-116 colon
HL-60(TB) leukemia = tested on: HL-60(TB) leukemia
MCF7 breast = tested on: MCF7 breast
MDA-MB-435 = tested on: MDA-MB-435
NCI-H23 lung = tested on: NCI-H23 lung
RPMI-8226 leukemia = tested on: RPMI-8226 leukemia
SK-OV-3 ovarian = tested on: SK-OV-3 ovarian
UACC-62 melanoma = tested on: UACC-62 melanoma

| SMILES | GI50 (786-0 renal) | TGI (786-0 renal) | GI50 (HCC-2998 colon) | TGI (HCC-2998 colon) | GI50 (HCT-116 colon) | TGI (HCT-116 colon) | GI50 (HL-60(TB) leukemia) | TGI (HL-60(TB) leukemia) | GI50 (MCF7 breast) | TGI (MCF7 breast) | GI50 (MDA-MB-435) | TGI (MDA-MB-435) | GI50 (NCI-H23 lung) | TGI (NCI-H23 lung) | GI50 (RPMI-8226 leukemia) | TGI (RPMI-8226 leukemia) | GI50 (SK-OV-3 ovarian) | TGI (SK-OV-3 ovarian) | GI50 (UACC-62 melanoma) | TGI (UACC-62 melanoma) |
| --- | --- | --- | --- | --- | --- | --- | --- | --- | --- | --- | --- | --- | --- | --- | --- | --- | --- | --- | --- | --- |
| O=C1Nc2ccc(F)cc2/C1=C/c1ccc[nH]1 | > 25 µM | > 25 µM | > 22.1 µM | > 25 µM | > 23.7 µM | > 25 µM | > 25 µM | > 25 µM | 1.06 µM | > 25 µM | > 25 µM | > 25 µM | > 25 µM | > 25 µM | > 25 µM | > 25 µM | > 25 µM | > 25 µM | > 25 µM | > 25 µM |
| Cn1c2ccccc2c(=O)c2ccc(Cl)cc21 |  | > 10 µM |  | > 10 µM |  | > 10 µM |  | > 10 µM |  | > 10 µM |  | > 10 µM |  | > 10 µM |  | > 10 µM |  | > 10 µM |  | > 10 µM |
| Cc1[nH]c2ccccc2c(=O)c1CC=C(Cl)Cl | 35.3 µM | > 100 µM | > 100 µM | > 100 µM | 45.3 µM | > 100 µM | > 100 µM | > 100 µM | 58 µM | > 100 µM | > 100 µM | > 100 µM | 50.6 µM | > 100 µM | 84.4 µM | > 100 µM | 24.2 µM | 55.6 µM | 34.5 µM | > 100 µM |
| Br[C](Br)(Br)[Hg][c]1ccccc1 | 16.2 µM | 30.2 µM | 14.4 µM | 27.7 µM | 19.7 µM | 47.9 µM | 2.28 µM | 6.62 µM | 4.85 µM | 19.4 µM | 16.1 µM | 30 µM | 9.3 µM | 23 µM | 18.9 µM | 70.6 µM | 19 µM | 33.1 µM | 16.4 µM | 38.2 µM |
| CC(C)C[C@H](NC(=O)/C=C/Cn1ccc2ccccc2c1=O)B(O)O | 5.03 µM | > 100 µM | 4.38 µM | 14.2 µM | 2.95 µM | 12.6 µM | 2.95 µM | > 100 µM | 5.33 µM | > 100 µM | 1.48 µM | 2.96 µM | 5.87 µM | > 100 µM | 0.845 µM | > 100 µM | 10.5 µM | 92.2 µM | 3.35 µM | 14.9 µM |
| COc1ccc(/C=C/c2cc(OC)cc(=O)o2)cc1 |  | > 100 µM |  | > 100 µM |  | > 100 µM |  | > 100 µM |  | > 100 µM |  | > 100 µM |  | > 100 µM |  | > 100 µM |  | > 100 µM |  | > 100 µM |
| CC1=C(O)C(=O)C=C2C1=CC=C1[C@@]2(C)CC[C@@]2(C)[C@@H]3C[C@](C)(C(=O)O)CC[C@]3(C)CC[C@]12C |  | 0.0294 µM |  | 0.155 µM |  | 0.0637 µM |  | 0.0585 µM |  | 0.266 µM |  | 0.157 µM |  | 0.181 µM |  | 0.0585 µM |  | 1 µM |  | 0.0669 µM |
| O=S(=O)(Nc1cc(Sc2cccc3cccnc23)c(O)c2ccccc12)c1ccccc1 | 0.79 µM | 10.7 µM | 4.77 µM | 19.1 µM | 0.555 µM | 2.8 µM | 0.487 µM | 4.69 µM | 0.52 µM | 2.85 µM | 2.01 µM | 12.6 µM | 1.93 µM | 12.8 µM | 2.38 µM | 7.9 µM | 4.3 µM | 17.9 µM | 1.49 µM | 4.33 µM |
| CC/C=C\C[C@H]1C/C=C2/C(=O)C=C[C@@H]2C/C=C\CCCC(=O)O1 | 0.637 µM | 1.89 µM | 1.76 µM | 3.22 µM | 0.218 µM | 0.511 µM | 0.439 µM | 3.3 µM | 0.395 µM | 8.06 µM | 0.37 µM | 4.08 µM | 1.89 µM | 5.03 µM | 0.352 µM | 4.03 µM | 3.99 µM | 12.9 µM | 0.573 µM | 2.37 µM |
| C[C@H](O)C(=O)N1CCC(CCn2c(Sc3cc4c(cc3Br)OCO4)nc3c(N)ncnc32)CC1 | 3.77 µM | > 100 µM | 0.867 µM | > 43.3 µM | 0.461 µM | > 100 µM | 0.409 µM | 14.5 µM | 0.368 µM | > 100 µM | 0.577 µM | > 100 µM | 0.689 µM | > 100 µM | 4.19 µM | > 100 µM | 0.48 µM | > 100 µM | 0.862 µM |  |
| Cc1ccc2[nH]c(O)c(N=Nc3ccc(S(N)(=O)=O)cc3)c2c1 | 23.5 µM | > 25 µM | 14.8 µM | > 25 µM | 8.87 µM | > 25 µM | > 25 µM | > 25 µM | 8.4 µM | > 25 µM | 15.5 µM | > 25 µM | > 21.5 µM | > 25 µM | > 25 µM | > 25 µM | 19.9 µM | > 25 µM | > 23.7 µM | > 25 µM |
| Nc1nc(F)nc2c1ncn2C1OC(CO)C(O)C1O (configuration not stated) | 13.2 µM | > 100 µM | 5.09 µM | > 100 µM | 19.4 µM | > 100 µM | 3.3 µM | > 100 µM | 26.3 µM | > 100 µM | 17.1 µM | > 100 µM | 7.99 µM | > 88.3 µM |  | > 100 µM |  | > 100 µM | 89.8 µM | > 100 µM |

From PubChem BioAssay (NCI)
